Like-named read-outs stand apart in the source and are kept apart here.

This assay deals with asymmetric di-methyl PABP1 in RKO cells. Briefly: RKO methylation assay (In Cell Western for asymmetric di-methyl PABP1). The class given is cell-based. To be noted: 48 hours incubation, read-out: Cellular IC50. An excerpt:
RKO adherent cells were purchased from ATCC (American Type Culture Collection), Manassas, Va., USA. DMEM/Glutamax medium, penicillin-streptomycin, heat inactivated fetal bovine serum, 0.05% trypsin and D-PBS were purchased from Life Technologies, Grand Island, N.Y., USA. Odyssey blocking buffer, 800CW goat anti-rabbit IgG (H+L) antibody, and Licor Odyssey infrared scanner were purchased from Licor Biosciences, Lincoln, Nebr., USA. Asymmetric di-methyl PABP1 antibody was purchased from Cell Signaling Technology, Danvers, Mass., USA. Methanol was purchased from VWR, Franklin, Mass., USA. 10% Tween 20 was purchased from KPL, Inc., Gaithersburg, Md., USA. Paraformaldehyde (PFA) was purchased from EM Sciences. DRAQ5 was purchased from Biostatus Limited, Leicestershire, UK.
RKO adherent cells were maintained in growth medium (DMEM/Glutamax medium supplemented with 10% v/v heat inactivated fetal bovine serum and 100 units/mL penicillin-streptomycin) and cultured at 37° C. under 5% CO2.
Compound (100 nL) from a 96-well source plate was added directly to 384 well cell plate. Plates were incubated at 37° C., 5% CO2 for 48 hours. After two days of incubation, plates were brought to room temperature outside of the incubator for ten minutes and blotted on paper towels to remove cell media. Cells were fixed for 20 minutes at room temperature by adding 50 ul of 8% PFA followed by aspiration of supernatant with the Biotek EL406 plate washer. Cells were then permeabilized by addition of 50 μL of ice cold 100% methanol directly to each well and incubated for 30 min at room temperature. After 30 min, plates were transferred to a Biotek EL406 plate washer and washed 2 times with 100 μL per well of wash buffer (IX PBS). Next 60 μL per well of Odyssey blocking buffer (Odyssey Buffer with 0.1% Tween 20 (v/v)) were added to each plate and incubated 1 hour at room temperature. Blocking buffer was removed and 20 μL per well of primary antibody was added (asymmetric-methyl PABP1) diluted 1:400 in Odyssey buffer with 0.1% Tween 20 (v/v)) and plates were incubated overnight (16 hours) at 4° C. Plates were washed 5 times with 100 μL per well of wash buffer. Next 20 μL per well of secondary antibody was added (1:800 800CW goat anti-rabbit IgG (H+L) antibody, 1:2000 DRAQ5 in Odyssey buffer with 0.1% Tween 20 (v/v)) and incubated for 1 hour at room temperature. The plates were washed 5 times with 100 μL per well wash buffer then 2 times with 100 μL per well of water. Plates were allowed to dry at room temperature then imaged on the Licor Odyssey machine which measures integrated intensity at 700 nm and 800 nm wavelengths. Both 700 and 800 channels were scanned.
First, the ratio for each well was determined by:
Each plate included fourteen control wells of DMSO only treatment (minimum inhibition) as well as fourteen control wells for maximum inhibition treated with 20 μM of a reference compound. The average of the ratio values for each control type was calculated and used to determine the percent […] for each test well in the plate. Reference compound was serially diluted three-fold in DMSO for a total of nine test concentrations, beginning at 20 μM.
Percent inhibition was determined and IC50 curves were generated using triplicate wells per concentration of compound.

For `CNCC(O)COc1cccc(-c2cc(NC(=O)NC3CCOCC3)c3cnn(C(C)C)c3n2)c1` (stereo not shown) [Example 2-1], the IC50 (Homo sapiens) was more than 20 µM.
The same measure, in the same setting: to `CC(C)n1ncc2c(N3CCOCC3)cc(-c3cccc(OCC(O)CN)c3)nc21` (stereo not shown) [Example 3-1] belongs 10 to 20 µM.
Regarding `CNC(=O)Nc1cc(-c2cccc(OCC(O)CN)c2)nc2c1cnn2C(C)C` (stereo not shown) [Example 8-1], the IC50 (Homo sapiens) was more than 20 µM.
Turning to `CNCC(O)COc1cccc(-c2cc(NCCN)c3cnn(C(C)C)c3n2)c1` (stereo not shown) [Example 9-1], where the note is “Homo sapiens”, the half-maximal inhibitory concentration (IC50) is more than 20 µM.
Take `COC(=O)Nc1cc(-c2cccc(OCC(O)CN)c2)nc2c1cnn2C(C)C` (stereo not shown) [Example 10-1]: the IC50 (Homo sapiens) is more than 20 µM.
In the case of `CC(C)n1ncc2c(N3CCOCC3)cc(-c3cccc(OCC(O)CN)c3)nc21` (stereo not shown) [Example 11-1], the IC50 was 10 to 20 µM.
For `CC(C)n1ncc2c(N3CCOCC3)cc(-c3cccc(OC[C@@H](O)CN)c3)nc21` [Example 12-1], the IC50 (Homo sapiens) was more than 20 µM.
Consider `CC(C)n1ncc2c(NC(=O)N(C)C)cc(-c3cccc(OCC(O)CN)c3)nc21` (stereo not shown) [Example 14-1], for which, for the setting “Homo sapiens”, the IC50 was more than 20 µM.
As for `CNCC(O)COc1cccc(-c2cc(N(C)C3CCOC3)n3ncc(C(C)C)c3n2)c1` (stereo not shown) [Example 14-6], the IC50 (Homo sapiens) was more than 20 µM.
On to `CNCC(O)COc1cccc(-c2cc(NCCCN)c3cnn(C(C)C)c3n2)c1` (stereo not shown) [Example 15-1], for which the IC50 (Homo sapiens) was more than 20 µM.
For the compound `CC(C)n1ncc2c(NC3CC3)cc(-c3cccc(OCC(O)CN)c3)nc21` (stereo not shown) [Example 15-9], for the setting “Homo sapiens”, the IC50 is more than 20 µM.
For `CNCC(O)COc1cccc(-c2cc(NC(=O)OC)c3cnn(C(C)C)c3n2)c1` (stereo not shown) [Example 16-1], the 50% inhibitory concentration (IC50) (Homo sapiens) was 10 to 20 µM.
For `COC(=O)CNc1cc(-c2cccc(OCC(O)CN)c2)nc2c1cnn2C(C)C` (stereo not shown) [Example 16-9], the IC50 (Homo sapiens) was more than 20 µM.
As for `CCOC(=O)Nc1cc(-c2cccc(OCC(O)CN)c2)nc2c1cnn2C(C)C` (stereo not shown) [Example 17-1], the IC50 (Homo sapiens) was more than 20 µM.
Regarding `CNCC(O)COc1cccc(-c2cc(NC3CC3)c3cnn(C(C)C)c3n2)c1` (stereo not shown) [Example 18-9], for the setting “Homo sapiens”, the IC50 was more than 20 µM.
For the compound `CC(C)n1ncc2c(NC3CCOCC3)cc(-c3cccc(OCC(O)CN)c3)nc21` (stereo not shown) [Example 19-1], the IC50 (Homo sapiens) was more than 20 µM.
For `CNCC(O)COc1cccc(-c2cc(N3CCOCC3)c3cnn(C(C)C)c3n2)c1` (stereo not shown) [Example 20-1], the IC50 (Homo sapiens) was more than 20 µM.
As to `CNCC(O)COc1cccc(-c2cc(NC(=O)N(C)C)c3cnn(C(C)C)c3n2)c1` (stereo not shown) [Example 21-1], the IC50 (Homo sapiens) is more than 20 µM.
With `CNCC(O)COc1cccc(-c2cc(NCCCCN)c3cnn(C(C)C)c3n2)c1` (stereo not shown) [Example 22-1], where the note is “Homo sapiens”, the IC50 was more than 20 µM.
Take `CNCC(O)COc1cccc(-c2cc(NC)c3cnn(C(C)C)c3n2)c1` (stereo not shown) [Example 22-9]: the IC50 (Homo sapiens) was more than 20 µM.
Regarding `CNCC(O)COc1cccc(-c2cc(NCC(=O)OC)c3cnn(C(C)C)c3n2)c1` (stereo not shown) [Example 23-1], the half-inhibitory concentration (IC50) (Homo sapiens) was more than 20 µM.
In the case of `CNCC(O)COc1cccc(-c2cc(Nc3ccccn3)c3cnn(C(C)C)c3n2)c1` (stereo not shown) [Example 24-1], the IC50 (Homo sapiens) was more than 20 µM.
Consider `CC(C)n1ncc2c(NCc3cccnc3)cc(-c3cccc(OCC(O)CN)c3)nc21` (stereo not shown) [Example 25-1], for which, under “Homo sapiens”, the IC50 is more than 20 µM.
With `CC(C)n1ncc2c(NCc3ccncc3)cc(-c3cccc(OCC(O)CN)c3)nc21` (stereo not shown) [Example 26-1], the IC50 (Homo sapiens) was more than 20 µM.
As to `CC(C)n1ncc2c(N(C)C3CCOCC3)cc(-c3cccc(OCC(O)CN)c3)nc21` (stereo not shown) [Example 28-1], under “Homo sapiens”, the IC50 was in the range of 10 to 20 µM.
For `CNCC(O)COc1cccc(-c2cc(NC3CCOCC3)c3cnn(C(C)C)c3n2)c1` (stereo not shown) [Example 29-1], the IC50 (Homo sapiens) lay within 10 to 20 µM.
On to `CC(C)n1ncc2c(NCC3CCOCC3)cc(-c3cccc(OCC(O)CN)c3)nc21` (stereo not shown) [Example 30-1], for which the IC50 (Homo sapiens) was more than 20 µM.
In the case of `CNCC(O)COc1cccc(-c2cc(NCCCCCN)c3cnn(C(C)C)c3n2)c1` (stereo not shown) [Example 32-1], where the note is “Homo sapiens”, the IC50 was more than 20 µM.
For `CNCC(O)COc1cccc(-c2cc(N(C)c3ccccn3)c3cnn(C(C)C)c3n2)c1` (stereo not shown) [Example 33-1], the IC50 (Homo sapiens) fell in the range of 10 to 20 µM.
The same measure, in the same setting: to `CNCC(O)COc1cccc(-c2cc(NCc3ccccn3)c3cnn(C(C)C)c3n2)c1` (stereo not shown) [Example 34-1] belongs 10 to 20 µM; to `CC(C)n1ncc2c(NCc3cccc(O)c3)cc(-c3cccc(OCC(O)CN)c3)nc21` (stereo not shown) [Example 35-1], more than 20 µM; to `Cc1c(CNc2cc(-c3cccc(OCC(O)CN)c3)nc3c2cnn3C(C)C)cnn1C` (stereo not shown) [Example 37-1], more than 20 µM.
`CC(C)n1ncc2c(N[C@H]3CO[C@@H]4OCC[C@@H]43)cc(-c3cccc(OCC(O)CN)c3)nc21` (stereo partly shown) [Example 38-1]: the IC50 (Homo sapiens) is more than 20 µM.
Take `CNCC(O)COc1cccc(-c2cc(N(C)C3CCOCC3)c3cnn(C(C)C)c3n2)c1` (stereo not shown) [Example 40-1]: the IC50 (Homo sapiens) lay within 5 to 10 µM.
As to `CNCC(O)COc1cccc(-c2cc(NCC3CCOCC3)c3cnn(C(C)C)c3n2)c1` (stereo not shown) [Example 41-1], under “Homo sapiens”, the IC50 was more than 20 µM.
Still for that read-out and setting: to `CC(C)n1ncc2c(N(C)CC3CCOCC3)cc(-c3cccc(OCC(O)CN)c3)nc21` (stereo not shown) [Example 42-1] belongs more than 20 µM; to `CNCC(O)COc1cccc(-c2cc(NCCCCCCN)c3cnn(C(C)C)c3n2)c1` (stereo not shown) [Example 43-1], more than 20 µM.
Take `CNCC(O)COc1cccc(-c2cc(NCc3cnn(C)c3C)c3cnn(C(C)C)c3n2)c1` (stereo not shown) [Example 46-1]: the IC50 (Homo sapiens) is 10 to 20 µM.
On to `CNCC(O)COc1cccc(-c2cc(N[C@H]3CO[C@@H]4OCC[C@@H]43)c3cnn(C(C)C)c3n2)c1` (stereo partly shown) [Example 47-1], for which the IC50 (Homo sapiens) is more than 20 µM.
The same measure, in the same setting: to `CNCC(O)COc1cccc(-c2cc(N(C)CC3CCOCC3)c3cnn(C(C)C)c3n2)c1` (stereo not shown) [Example 48-1] belongs 10 to 20 µM; to `CC(C)n1ncc2c(NC(=O)NC3CCOCC3)cc(-c3cccc(OCC(O)CN)c3)nc21` (stereo not shown) [Example 49-1], more than 20 µM; to `CC(C)n1ncc2c(NCc3cnc4ccccn34)cc(-c3cccc(OCC(O)CN)c3)nc21` (stereo not shown) [Example 50-1], more than 20 µM.
Consider `CC(C)n1ncc2c(NC(=O)OCc3ccccc3)cc(-c3cccc(OCC(O)CN)c3)nc21` (stereo not shown) [Example 51-1], for which the IC50 (Homo sapiens) was more than 20 µM.
With `CNCC(O)COc1cccc(-c2cc(N3CCC(C(=O)OC)CC3)c3cnn(C(C)C)c3n2)c1` (stereo not shown) [Example 52-1], for the setting “Homo sapiens”, the IC50 was more than 20 µM.
For the compound `CNCC(O)COc1cccc(-c2cc(NCc3cnc4ccccn34)c3cnn(C(C)C)c3n2)c1` (stereo not shown) [Example 53-1], where the note is “Homo sapiens”, the IC50 was more than 20 µM.
On the same count and under the same terms, to `CNCC(O)COc1cccc(-c2cc(NC(=O)OCc3ccccc3)c3cnn(C(C)C)c3n2)c1` (stereo not shown) [Example 54-1] belongs more than 20 µM; to `COc1nc(C)cc(C)c1CNc1cc(-c2cccc(OCC(O)CN)c2)nc2c1cnn2C(C)C` (stereo not shown) [Example 55-1], more than 20 µM.
As to `CNCC(O)COc1cccc(-c2cc(NCCNC(=O)c3cccnc3)c3cnn(C(C)C)c3n2)c1` (stereo not shown) [Example 56-1], the IC50 (Homo sapiens) is more than 20 µM.
The same measure, in the same setting: to `CNCC(O)COc1cccc(-c2cc(NCCNC(=O)c3ccn(C)n3)c3cnn(C(C)C)c3n2)c1` (stereo not shown) [Example 58-1] belongs more than 20 µM.
On the same count and under the same terms, to `CNCC(O)COc1cccc(-c2cc(NCCCNC(=O)c3cccnc3)c3cnn(C(C)C)c3n2)c1` (stereo not shown) [Example 59-1] belongs more than 20 µM.
As to `CNCC(O)COc1cccc(-c2cc(NCCCNC(=O)c3ccn(C)n3)c3cnn(C(C)C)c3n2)c1` (stereo not shown) [Example 60-1], the IC50 (Homo sapiens) is more than 20 µM.
Consider `CNCC(O)COc1cccc(-c2cc(NCCCCNC(=O)c3cccnc3)c3cnn(C(C)C)c3n2)c1` (stereo not shown) [Example 61-1], for which the IC50 (Homo sapiens) is more than 20 µM.
